The record followed here is patent publication US20140120087A1, “TRIAZOLOPYRIDINES” (BAYER INTELLECTUAL PROPERTY GMBH, priority 2011, published 2014).

Experiment [1] addresses T1, Mps-1 kinase (Homo sapiens, UniProt P33981).
T1 sequence (P33981 1-857): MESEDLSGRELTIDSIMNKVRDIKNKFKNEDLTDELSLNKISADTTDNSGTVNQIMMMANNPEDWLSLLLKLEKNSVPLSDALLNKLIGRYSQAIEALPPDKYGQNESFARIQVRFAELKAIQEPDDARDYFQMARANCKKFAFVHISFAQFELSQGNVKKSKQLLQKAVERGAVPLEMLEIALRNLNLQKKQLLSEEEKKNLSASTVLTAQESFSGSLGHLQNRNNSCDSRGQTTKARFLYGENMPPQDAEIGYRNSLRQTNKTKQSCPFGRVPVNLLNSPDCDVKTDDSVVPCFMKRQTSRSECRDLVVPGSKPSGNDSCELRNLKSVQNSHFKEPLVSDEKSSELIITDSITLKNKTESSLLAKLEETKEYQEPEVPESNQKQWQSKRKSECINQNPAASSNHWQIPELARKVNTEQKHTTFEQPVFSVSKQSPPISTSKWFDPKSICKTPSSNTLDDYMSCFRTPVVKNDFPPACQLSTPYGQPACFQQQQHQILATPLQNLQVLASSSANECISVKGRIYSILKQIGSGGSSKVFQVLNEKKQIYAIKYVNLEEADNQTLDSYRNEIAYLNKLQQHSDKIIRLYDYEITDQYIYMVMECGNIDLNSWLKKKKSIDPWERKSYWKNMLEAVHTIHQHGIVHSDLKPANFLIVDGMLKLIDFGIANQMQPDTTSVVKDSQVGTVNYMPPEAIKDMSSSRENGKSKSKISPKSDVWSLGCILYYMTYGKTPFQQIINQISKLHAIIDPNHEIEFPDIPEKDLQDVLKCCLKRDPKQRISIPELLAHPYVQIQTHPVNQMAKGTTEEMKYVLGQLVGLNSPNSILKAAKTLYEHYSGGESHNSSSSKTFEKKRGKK
Put plainly: Mps-1 kinase assay with 10 μM ATP (TR-FRET).

The target of experiment [2] is T1, Mps-1 kinase. Put plainly: Mps-1 kinase assay with 2 mM ATP (TR-FRET). A general note: TR-FRET usually uses a lanthanide donor and a delayed reading to cut background.

Structures are written as SMILES. Bounds are passed on as bounds.

As for `COc1cc(C(=O)NCCN(C)C)ccc1Nc1nc2ccc(-c3ccc(NC(=O)Cc4ccc(F)cc4)cc3)cn2n1` [Example 12.10, N-[2-(dimethylamino)ethyl]-4-{[6-(4-{[(4-fluorophenyl)-acetyl]amino}phenyl)[1,2,4]triazolo[1,5-a]pyridin-2-yl]amino}-3-methoxy-benzamide], the IC50 against Mps-1 kinase [1] and at Mps-1 kinase [2] was not above 1 nM throughout.
Regarding `Cc1cc(C(=O)NCCF)ccc1Nc1nc2ccc(-c3ccc(NC(=O)Cc4ccc(F)cc4)cc3)cn2n1` [Example 12.30, N-(2-fluoroethyl)-4-{[6-(4-{[(4-fluorophenyl)acetyl]-amino}phenyl)[1,2,4]-triazolo[1,5-a]pyridin-2-yl]amino}-3-methyl-benzamide], the half-inhibitory concentration (IC50) (usually the concentration that inhibits the measured activity by half) on Mps-1 kinase [1] is not above 1 nM; against Mps-1 kinase [2], 4.3 nM.
The corresponding values for `COc1cc(C(=O)NCC(F)(F)F)ccc1Nc1nc2ccc(-c3ccc(C(=O)NCc4ccc(F)cc4F)cc3)cn2n1` [Example 12.79, 4-[(6-{4-[(2,4-difluoro-benzyl)carbamoyl]phenyl}-[1,2,4]triazolo[1,5-a]pyridin-2-yl)amino]-3-methoxy-N-(2,2,2-trifluoro-ethyl)benzamide] are not above 1 nM and 23 nM.
Turning to `NC(=O)c1ccc(Nc2nc3ccc(-c4ccc(C(=O)NCc5ccc(F)cc5)cc4)cn3n2)c(OC(F)(F)F)c1` [Example 12.60, 4-[(6-{4-[(4-fluorobenzyl)-carbamoyl]phenyl}[1,2,4]triazolo [1,5-K]pyridin-2-yl)-amino]-3-(trifluoro-methoxy)benzamide], the IC50 was not above 1 nM at Mps-1 kinase [1] and 5 nM at Mps-1 kinase [2].
Regarding `Cc1cc(S(C)(=O)=O)ccc1Nc1nc2ccc(-c3ccc(NC(=O)Cc4ccc(F)cc4)cc3)cn2n1` [Example 12.32, 2-(4-fluorophenyl)-N-[4-(2-{[2-methyl-4-(methyl-sulfonyl)phenyl]amino}-[1,2,4]triazolo[1,5-a]pyridin-6-yl)phenyl]acetamide], the concentration for half-maximal inhibition (IC50) on Mps-1 kinase [1] was not above 1 nM; against Mps-1 kinase [2] it was 2.2 nM.
Turning to `CNC(=O)c1ccc(Nc2nc3ccc(-c4ccc(NC(=O)Cc5ccc(F)cc5)cc4)cn3n2)c(OC)c1` [Example 01.30, 4-{[6-(4-{[(4-fluorophenyl)acetyl]amino}phenyl)[1,2,4]triazolo[1,5-α]-pyridin-2-yl]amino}-3-methoxy-N-methylbenzamide], the IC50 against Mps-1 kinase [1] and against Mps-1 kinase [2] was not above 1 nM each time.
As for `Cc1cc(-c2ccc3nc(Nc4ccc(S(C)(=O)=O)cc4OCC(F)(F)F)nn3c2)ccc1C(=O)NCc1ccc(F)cc1` [Example 04.2, N-(4-fluorobenzyl)-2-methyl-4-(2-{[4-(methylsulfonyl)-2-(2,2,2-trifluoro-ethoxy)phenyl]amino}[1,2,4]triazolo[, 5-α]pyridin-6-yl)benzamide], the IC50 against Mps-1 kinase [1] was not above 1 nM; against Mps-1 kinase [2], 15 nM.
Regarding `COc1cc(CO)ccc1Nc1nc2ccc(-c3ccc(C(=O)NCc4ccc(F)cc4)cc3)cn2n1` [Example 12.85, N-(4-fluorobenzyl)-4-(2-{[4-(hydroxymethyl)-2-methoxyphenyl]amino}-[1,2,4]triazolo[1,5-α]pyridin-6-yl)benzamide], the 50% inhibitory concentration (IC50) at Mps-1 kinase [1] was not above 1 nM; against Mps-1 kinase [2] it was 2.2 nM.
In the case of `COc1cc([S@@+](C)[O-])ccc1Nc1nc2ccc(-c3ccc(NC(=O)Cc4ccc(F)cc4)cc3)cn2n1` (stereo in doubt) [Example 12.13, 2-(4-fluorophenyl)-N-[4-(2-{[2-methoxy-4-(methyl-sulfinyl)phenyl]amino}-[1,2,4]triazolo[1,5-a]pyridin-6-yl)phenyl]acetamide], the IC50 against Mps-1 kinase [1] and against Mps-1 kinase [2] was not above 1 nM each time.
`COc1cc(C(C)(C)O)ccc1Nc1nc2ccc(-c3ccc(C(=O)NCc4ccc(F)cc4)cc3)cn2n1` [Example 12.54, N-(4-fluorobenzyl)-4-(2-{[4-(2-hydroxypropan-2-yl)-2-methoxyphenyl]amino}-[1,2,4]triazolo[1,5-a]pyridin-6-yl)benzamide]: the IC50 is not above 1 nM against Mps-1 kinase [1] and 1.1 nM against Mps-1 kinase [2].
Consider `COc1cc(S(C)(=O)=O)ccc1Nc1nc2ccc(-c3ccc(NC(=O)Cc4ccc(F)cc4F)cc3)cn2n1` [Example 10.01], for which the IC50 at Mps-1 kinase [1] was not above 1 nM; on Mps-1 kinase [2], 17 nM.
As for `COc1cc(C(=O)NCC(F)(F)F)ccc1Nc1nc2ccc(-c3ccc(C(=O)NCc4ccc(Cl)cc4)cc3)cn2n1` [Example 12.72, 4-[(6-{4-[(4-chlorobenzyl)-carbamoyl]phenyl}[1,2,4]triazolo [1,5-a]pyridin-2-yl)-amino]-3-methoxy-N-(2,2,2-trifluoroethyl)benzamide], the IC50 against Mps-1 kinase [1] is not above 1 nM; against Mps-1 kinase [2], 16 nM.
Consider `COc1cc(S(C)(=O)=O)ccc1Nc1nc2ccc(-c3ccc(NC(=O)Cc4ccc(Cl)cc4)cc3)cn2n1` [Example 12.41, 2-(4-chlorophenyl)-N-[4-(2-{[2-methoxy-4-(methyl-sulfonyl)phenyl]amino}-[1,2,4]triazolo[1,5-a]pyridin-6-yl)phenyl]acetamide], for which the IC50 against Mps-1 kinase [1] was not above 1 nM; at Mps-1 kinase [2], 7.2 nM.
With `COc1cc(C(=O)NCC(F)F)ccc1Nc1nc2ccc(-c3ccc(NC(=O)Cc4ccc(F)cc4)cc3)cn2n1` [Example 12.07, N-(2,2-difluoroethyl)-4-{[6-(4-{[(4-fluorophenyl)-acetyl]amino}phenyl)[1,2,4]triazolo[1,5-a]pyridin-2-yl]amino}-3-methoxy-benzamide], the 50% inhibitory concentration (IC50) against Mps-1 kinase [1] and at Mps-1 kinase [2] was not above 1 nM throughout.
For `CCS(=O)(=O)c1ccc(Nc2nc3ccc(-c4ccc(NC(=O)Cc5ccc(F)cc5)cc4)cn3n2)c(OC(F)F)c1` [Example 01.36, N-[4-(2-{[2-(difluoromethoxy)-4-(ethylsulfonyl)phenyl]amino}[1,2,4]-triazolo[1,5-α]pyridin-6-yl)phenyl]-2-(4-fluorophenyl)acetamide], the half-inhibitory concentration (IC50) on Mps-1 kinase [1] and on Mps-1 kinase [2] was not above 1 nM in each case.
For `Cc1cc(C(=O)NCC(F)(F)F)ccc1Nc1nc2ccc(-c3ccc(NC(=O)Cc4ccc(F)cc4)cc3)cn2n1` [Example 12.29, 4-{[6-(4-{[(4-fluorophenyl)-acetyl]amino}phenyl)[1,2,4]triazolo[1,5-a]pyridin-2-yl]amino}-3-methyl-N-(2,2,2-trifluoroethyl)-benzamide], the values for the concentration for half-maximal inhibition (IC50) against Mps-1 kinase [1] and against Mps-1 kinase [2] were not above 1 nM and 2.3 nM, respectively.
Consider `COc1cc(S(C)(=O)=O)ccc1Nc1nc2ccc(-c3ccc(C(=O)NCc4ccc(F)cc4)c(OC)c3)cn2n1` [Example 09.1, N-(4-fluorobenzyl)-2-methoxy-4-(2-{[2-methoxy-4-(methylsulfonyl)phenyl]-amino}[1,2,4]triazolo[1,5-α]pyridin-6-yl)benzamide], for which the IC50 at Mps-1 kinase [1] is not above 1 nM; at Mps-1 kinase [2], 19 nM.
Take `CC(C)S(=O)(=O)c1ccc(Nc2nc3ccc(-c4ccc(NC(=O)Cc5ccc(F)cc5)cc4)cn3n2)c(OC(F)F)c1` [Example 12.26, N-[4-(2-{[2-(difluoro-methoxy)-4-(propan-2-ylsulfonyl)phenyl]amino}-[1,2,4]triazolo[1,5-a]pyridin-6-yl)phenyl]-2-(4-fluorophenyl)acetamide]: the half-inhibitory concentration (IC50) on Mps-1 kinase [1] is not above 1 nM; against Mps-1 kinase [2], 1.2 nM.
For `COc1ccc(Nc2nc3ccc(-c4ccc(NC(=O)Cc5ccc(F)cc5)cc4)cn3n2)c(C)c1` [Example 12.35, 2-(4-fluorophenyl)-N-(4-{2-[(4-methoxy-2-methyl-phenyl)amino][1,2,4]-triazolo[1,5-a]pyridin-6-yl}-phenyl)acetamide], in that order: not above 1 nM and 2.1 nM.
For `COc1cc(C(=O)N(C)C)ccc1Nc1nc2ccc(-c3ccc(C(=O)NCc4ccc(F)cc4)cc3)cn2n1` [Example 12.46, 4-[(6-{4-[(4-fluorobenzyl)-carbamoyl]phenyl}[1,2,4]triazolo [1,5-a]pyridin-2-yl)-amino]-3-methoxy-N,N-dimethylbenzamide], in that order: not above 1 nM and 3.5 nM.
As for `O=C(NCCF)c1ccc(Nc2nc3ccc(-c4ccc(C(=O)NCc5ccc(F)cc5)cc4)cn3n2)c(OCC(F)(F)F)c1` [Example 12.59, 4-[(6-{4-[(4-fluorobenzyl)-carbamoyl]phenyl}[1,2,4]triazolo [1,5-a]pyridin-2-yl)-amino]-N-(2-fluoroethyl)-3-(2,2,2-trifluoroethoxy)-benzamide], the IC50 against Mps-1 kinase [1] and at Mps-1 kinase [2] was not above 1 nM in each case.
Consider `CCOc1cc(C(=O)NCCF)ccc1Nc1nc2ccc(-c3ccc(C(=O)NCc4ccc(F)cc4)cc3)cn2n1` [Example 12.57, 3-ethoxy-4-[(6-{4-[(4-fluoro-benzyl)carbamoyl]phenyl}-[1,2,4]triazolo[1,5-a]pyridin 2-yl)amino]-N-(2-fluoroethyl)benzamide], for which the half-maximal inhibitory concentration (IC50) against Mps-1 kinase [1] and against Mps-1 kinase [2] was not above 1 nM each time.
